Measured values: patent US20120059024A1 (priority 2009, published 2012)
Where “and” joins values, the source holds several entries; their conditions need not be identical. Identical values can stand only once. Like-named read-outs stand apart in the source and are kept apart here.

Assays:
[1] = in vivo, cited from earlier work
young adult Wistar rats = details: intraperitoneal
[2] = Mean Equivalent Daily Dose (MEDD) conversion table for opioids; format: in vivo
human volunteers = test: Human drug liking study; details: any dose of oxycodone alone vs same dose combined with 100 mg flupirtine, oral capsule

Structure (SMILES)	MEDD-Factor ([1]; po)	MEDD-Factor ([1]; sc)	MEDD-Factor ([1]; iv)	other results
COc1cccc(C2(O)CCCCC2CN(C)C)c1 (stereo not drawn) [Tramadol]	0.05	0.1		
CCOC(=O)Nc1ccc(NCc2ccc(F)cc2)nc1N [flupirtine]				sedation (young adult Wistar rats; 10 mg/kg flupirtine, criteria of Goodchild et al. 2008): non-sedating; sedation (young adult Wistar rats; 20 mg/kg flupirtine, criteria of Goodchild et al. 2008): sedating
COc1ccc2c3c1O[C@H]1C(=O)CC[C@@]4(O)[C@@H](C2)N(C)CC[C@]314 [Oxycodone]	0.63	1.5		dose equivalent to a 100 mg dose of morphine administered orally ([2]; orally administered): 63 mg; subject preference (drug liking) (human volunteers): preferred to, or no less preferred to
CN1CC[C@]23CCCC[C@H]2[C@H]1Cc1ccc(O)cc13 [Levo-dromoran]		5		MEDD-Factor [1]: 0.25
CCC(=O)C(CC(C)N(C)C)(c1ccccc1)c1ccccc1 (stereo not drawn) [Methadone]	4	8	8	
CC(=O)Oc1ccc2c3c1O[C@H]1[C@@H](OC(C)=O)C=C[C@H]4[C@@H](C2)N(C)CC[C@@]341 [Diamorphine]	0.65	1.3		
CCOC(=O)C1(c2ccccc2)CCN(C)CC1 [Meperidine]	0.05	0.1	0.1	
COc1ccc2c3c1O[C@H]1[C@@H](O)C=C[C@H]4[C@@H](C2)N(C)CC[C@@]341 [Codeine]	0.05	0.1		MEDD-Factor [1]: 0.1 and 0.05
COc1ccc2c3c1O[C@H]1C(=O)CC[C@H]4[C@@H](C2)N(C)CC[C@]314 [Hydrocodone]	0.4			
CN1CC[C@]23c4c5ccc(O)c4O[C@H]2[C@@H](O)C=C[C@H]3[C@H]1C5 [Morphine]	0.4	1	1	dose equivalent to a 100 mg dose of morphine administered orally ([2]; administered intravenously): 40 mg; sedation (young adult Wistar rats; 1.6 mg/kg morphine): not sedating
